Test results taken from ChEMBL document CHEMBL3259542, “Design, synthesis and pharmacological evaluation of novel polycyclic heteroarene ethers as PDE10A inhibitors: Part I” (Bioorg Med Chem Lett, 2014).
pIC50: −log10 of the molar value.

Experiments:
Liver microsome [1] = experiment: Metabolic stability in rat liver microsomes assessed as metabolite M9 (9-methyl-3-(2-(3-(pyrimidin-5-yl)pyridin-2-yloxy)vinyl)-9H-pyrido[2,3-b]indole) formation at 1 uM after 60 mins by LC-MS/MS analysis; assay type: ADME; conditions: 1 h
[2] = biological target: cGMP-specific 3',5'-cyclic phosphodiesterase (Homo sapiens) (UniProt O76074); experiment: Inhibition of N-terminal GST-tagged human recombinant PDE5A assessed as substrate hydrolysis using [3H]cGMP as substrate at 1 uM after 30 mins by two-step radiometric assay
Liver microsome [3] = experiment: Metabolic stability in rat liver microsomes assessed as metabolite M3 (1-(9H-pyrido[2,3-b]indol-3-yl)-2-(3-(pyrimidin-5-yl)pyridin-2-yloxy)ethanol) formation at 1 uM after 60 mins by LC-MS/MS analysis; assay type: ADME; conditions: 1 h
[4] = Metabolic stability in human liver microsomes assessed as compound remaining at 1 uM after 60 mins; assay type: ADME; conditions: read-out: Stability
[5] = biological target: T1, cAMP and cAMP-inhibited cGMP 3',5'-cyclic phosphodiesterase 10A (Homo sapiens, UniProt Q9Y233); experiment: Inhibition of N-terminal GST-tagged human recombinant PDE10A assessed as substrate hydrolysis using [3H]cAMP as substrate after 30 mins by two-step radiometric assay
[6] = Metabolic stability in rat liver microsomes assessed as compound remaining at 1 uM after 60 mins; assay type: ADME; conditions: read-out: Stability
[7] = biological target: High affinity cGMP-specific 3',5'-cyclic phosphodiesterase 9A (Homo sapiens) (UniProt O76083); experiment: Inhibition of N-terminal GST-tagged human recombinant PDE9A assessed as substrate hydrolysis using [3H]cGMP as substrate at 1 uM after 30 mins by two-step radiometric assay
[8] = Retention time of the compound by HPLC analysis; assay type: physicochemical
Homo sapiens = species on record: Homo sapiens; experiment: Selectivity for human recombinant PDE10A over human recombinant PDE2A
[9] = biological target: cGMP-inhibited 3',5'-cyclic phosphodiesterase 3A (Homo sapiens) (UniProt Q14432); experiment: Inhibition of N-terminal GST-tagged human recombinant PDE3A assessed as substrate hydrolysis using cAMP as substrate at 1 uM after 30 mins by homogenous time-resolved fluorescence method
[10] = biological target: Dual specificity calcium/calmodulin-dependent 3',5'-cyclic nucleotide phosphodiesterase 1A (Homo sapiens) (UniProt P54750); experiment: Inhibition of N-terminal GST-tagged human recombinant PDE1A assessed as substrate hydrolysis using [3H]cAMP as substrate at 1 uM after 30 mins by two-step radiometric assay
Liver microsome [11] = experiment: Metabolic stability in rat liver microsomes assessed as metabolite M8 (1-(9-methyl-9H-pyrido[2,3-b]indol-3-yl)-2-(3-(pyrimidin-5-yl)pyridin-2-yloxy)ethanol) formation at 1 uM after 60 mins by LC-MS/MS analysis; assay type: ADME; conditions: 1 h
Liver microsome [12] = experiment: Metabolic stability in rat liver microsomes assessed as metabolite M4 (9-methyl-3-(2-(3-(pyrimidin-5-yl)pyridin-2-yloxy)vinyl)-9H-pyrido[2,3-b]indole 1-oxide) formation at 1 uM after 60 mins by LC-MS/MS analysis; assay type: ADME; conditions: 1 h
[13] = biological target: High affinity cAMP-specific and IBMX-insensitive 3',5'-cyclic phosphodiesterase 8A (Homo sapiens) (UniProt O60658); experiment: Inhibition of N-terminal GST-tagged human recombinant PDE8A assessed as substrate hydrolysis using [3H]cAMP as substrate at 1 uM after 30 mins by two-step radiometric assay
[14] = biological target: 3',5'-cyclic-AMP phosphodiesterase 4D (Homo sapiens) (UniProt Q08499); experiment: Inhibition of N-terminal GST-tagged human recombinant PDE4D assessed as substrate hydrolysis using [3H]cAMP as substrate at 1 uM after 30 mins by two-step radiometric assay
[15] = biological target: cGMP-dependent 3',5'-cyclic phosphodiesterase (Homo sapiens) (UniProt O00408); experiment: Inhibition of N-terminal GST-tagged human recombinant PDE2A assessed as substrate hydrolysis using cAMP as substrate at 1 uM after 30 mins by homogenous time-resolved fluorescence method
[16] = biological target: T1, cAMP and cAMP-inhibited cGMP 3',5'-cyclic phosphodiesterase 10A; experiment: Inhibition of N-terminal GST-tagged human recombinant PDE10A assessed as substrate hydrolysis using [3H]cAMP as substrate at 1 uM after 30 mins by two-step radiometric assay
Liver microsome [17] = experiment: Metabolic stability in rat liver microsomes assessed as metabolite M1 (3-(2-(3-(pyrimidin-5-yl)pyridin-2-yloxy)ethyl)-9H-pyrido[23-b]indole 1-oxide) formation at 1 uM after 60 mins by LC-MS/MS analysis; assay type: ADME; conditions: 1 h
Liver microsome [18] = experiment: Metabolic stability in rat liver microsomes assessed as metabolite M6 (3-(2-(3-(pyrimidin-5-yl)pyridin-2-yloxy)ethyl)-9H-pyrido[2,3-b]indole) formation at 1 uM after 60 mins by LC-MS/MS analysis; assay type: ADME; conditions: 1 h
[19] = biological target: Dual 3',5'-cyclic-AMP and -GMP phosphodiesterase 11A (Homo sapiens) (UniProt Q9HCR9); experiment: Inhibition of N-terminal GST-tagged human recombinant PDE11A assessed as substrate hydrolysis using [3H]cAMP as substrate at 1 uM after 30 mins by two-step radiometric assay
[20] = biological target: High affinity 3',5'-cyclic-AMP phosphodiesterase 7A (Homo sapiens) (UniProt Q13946); experiment: Inhibition of N-terminal GST-tagged human recombinant PDE7A assessed as substrate hydrolysis using [3H]cAMP as substrate at 1 uM after 30 mins by two-step radiometric assay
Liver microsome [21] = experiment: Metabolic stability in rat liver microsomes assessed as metabolite M7 (9-methyl-3-(2-(3-(pyrimidin-5-yl)pyridin-2-yloxy)vinyl)-9H-pyrido[2,3-b]indole) formation at 1 uM after 60 mins by LC-MS/MS analysis; assay type: ADME; conditions: 1 h
Liver microsome [22] = experiment: Metabolic stability in rat liver microsomes assessed as metabolite M5 (2-(2-(9-methyl-9H-pyrido[2,3-b]indol-3-yl)vinyloxy)-3-(pyrimidin-5-yl)pyridine 1-oxide) formation at 1 uM after 60 mins by LC-MS/MS analysis; assay type: ADME; conditions: 1 h
Liver microsome [23] = experiment: Metabolic stability in rat liver microsomes assessed as metabolite M2 (9-methyl-3-(2-(3-(pyrimidin-5-yl)pyridin-2-yloxy)vinyl)-9H-pyrido[2,3-b]indole 9-oxide) formation at 1 uM after 60 mins by LC-MS/MS analysis; assay type: ADME; conditions: 1 h
[24] = biological target: cGMP-dependent 3',5'-cyclic phosphodiesterase (Homo sapiens) (UniProt O00408); experiment: Inhibition of N-terminal GST-tagged human recombinant PDE2A assessed as substrate hydrolysis using cAMP as substrate at 10 uM after 30 mins by homogenous time-resolved fluorescence method

Sequence of cGMP-dependent 3',5'-cyclic phosphodiesterase (Homo sapiens) (O00408 whole entry): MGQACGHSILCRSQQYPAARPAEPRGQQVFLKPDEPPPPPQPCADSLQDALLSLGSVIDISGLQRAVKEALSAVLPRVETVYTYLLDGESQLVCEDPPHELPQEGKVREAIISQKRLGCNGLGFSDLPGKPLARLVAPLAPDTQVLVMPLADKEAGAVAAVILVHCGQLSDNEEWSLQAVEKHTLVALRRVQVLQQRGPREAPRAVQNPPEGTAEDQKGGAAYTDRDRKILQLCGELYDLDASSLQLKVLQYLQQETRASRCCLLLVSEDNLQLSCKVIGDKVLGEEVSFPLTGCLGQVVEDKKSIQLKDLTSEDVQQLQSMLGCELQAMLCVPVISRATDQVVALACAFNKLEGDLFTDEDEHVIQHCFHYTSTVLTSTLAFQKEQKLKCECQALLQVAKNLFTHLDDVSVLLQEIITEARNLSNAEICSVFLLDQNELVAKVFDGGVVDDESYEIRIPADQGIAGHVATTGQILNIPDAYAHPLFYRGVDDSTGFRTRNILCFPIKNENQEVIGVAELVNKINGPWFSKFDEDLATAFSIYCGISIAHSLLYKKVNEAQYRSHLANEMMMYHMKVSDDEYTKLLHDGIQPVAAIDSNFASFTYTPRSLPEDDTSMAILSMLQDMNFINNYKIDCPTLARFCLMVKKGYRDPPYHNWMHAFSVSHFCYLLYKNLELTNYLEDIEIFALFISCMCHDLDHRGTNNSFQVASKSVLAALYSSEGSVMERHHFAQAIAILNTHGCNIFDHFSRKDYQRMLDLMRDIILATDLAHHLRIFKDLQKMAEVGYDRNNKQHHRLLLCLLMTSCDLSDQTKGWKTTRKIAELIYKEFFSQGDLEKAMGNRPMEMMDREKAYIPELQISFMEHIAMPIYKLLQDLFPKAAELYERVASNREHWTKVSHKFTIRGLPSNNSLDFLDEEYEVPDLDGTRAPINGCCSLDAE
T1 sequence (Q9Y233 whole entry): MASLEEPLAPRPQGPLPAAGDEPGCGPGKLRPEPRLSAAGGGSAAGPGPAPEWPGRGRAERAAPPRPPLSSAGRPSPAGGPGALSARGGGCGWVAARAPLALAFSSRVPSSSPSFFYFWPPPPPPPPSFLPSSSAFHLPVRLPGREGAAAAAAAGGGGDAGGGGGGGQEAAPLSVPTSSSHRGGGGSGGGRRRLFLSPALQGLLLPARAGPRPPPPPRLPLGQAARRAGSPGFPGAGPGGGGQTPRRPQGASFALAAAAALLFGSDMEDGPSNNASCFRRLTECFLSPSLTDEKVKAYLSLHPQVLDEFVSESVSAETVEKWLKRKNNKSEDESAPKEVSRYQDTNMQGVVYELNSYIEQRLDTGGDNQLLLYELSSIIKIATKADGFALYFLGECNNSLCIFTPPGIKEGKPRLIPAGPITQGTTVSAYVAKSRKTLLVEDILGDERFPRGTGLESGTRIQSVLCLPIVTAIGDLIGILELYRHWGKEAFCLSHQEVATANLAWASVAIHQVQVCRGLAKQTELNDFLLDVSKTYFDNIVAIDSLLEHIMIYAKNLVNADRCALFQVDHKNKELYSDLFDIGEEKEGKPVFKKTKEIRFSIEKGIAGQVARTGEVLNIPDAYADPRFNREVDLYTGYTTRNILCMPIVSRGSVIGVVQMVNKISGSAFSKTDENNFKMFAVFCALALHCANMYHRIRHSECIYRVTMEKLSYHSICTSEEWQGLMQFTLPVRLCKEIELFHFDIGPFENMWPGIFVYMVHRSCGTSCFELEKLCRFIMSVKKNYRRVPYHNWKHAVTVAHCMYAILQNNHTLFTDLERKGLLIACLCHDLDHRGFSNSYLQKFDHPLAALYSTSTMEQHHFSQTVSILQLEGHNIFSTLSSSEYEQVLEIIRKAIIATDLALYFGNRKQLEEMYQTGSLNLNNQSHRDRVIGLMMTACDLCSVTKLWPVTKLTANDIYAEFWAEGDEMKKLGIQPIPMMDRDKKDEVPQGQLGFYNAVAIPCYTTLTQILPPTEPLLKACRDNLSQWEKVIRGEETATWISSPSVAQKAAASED
Sequence of Dual 3',5'-cyclic-AMP and -GMP phosphodiesterase 11A (Homo sapiens) (Q9HCR9 whole entry, looked up): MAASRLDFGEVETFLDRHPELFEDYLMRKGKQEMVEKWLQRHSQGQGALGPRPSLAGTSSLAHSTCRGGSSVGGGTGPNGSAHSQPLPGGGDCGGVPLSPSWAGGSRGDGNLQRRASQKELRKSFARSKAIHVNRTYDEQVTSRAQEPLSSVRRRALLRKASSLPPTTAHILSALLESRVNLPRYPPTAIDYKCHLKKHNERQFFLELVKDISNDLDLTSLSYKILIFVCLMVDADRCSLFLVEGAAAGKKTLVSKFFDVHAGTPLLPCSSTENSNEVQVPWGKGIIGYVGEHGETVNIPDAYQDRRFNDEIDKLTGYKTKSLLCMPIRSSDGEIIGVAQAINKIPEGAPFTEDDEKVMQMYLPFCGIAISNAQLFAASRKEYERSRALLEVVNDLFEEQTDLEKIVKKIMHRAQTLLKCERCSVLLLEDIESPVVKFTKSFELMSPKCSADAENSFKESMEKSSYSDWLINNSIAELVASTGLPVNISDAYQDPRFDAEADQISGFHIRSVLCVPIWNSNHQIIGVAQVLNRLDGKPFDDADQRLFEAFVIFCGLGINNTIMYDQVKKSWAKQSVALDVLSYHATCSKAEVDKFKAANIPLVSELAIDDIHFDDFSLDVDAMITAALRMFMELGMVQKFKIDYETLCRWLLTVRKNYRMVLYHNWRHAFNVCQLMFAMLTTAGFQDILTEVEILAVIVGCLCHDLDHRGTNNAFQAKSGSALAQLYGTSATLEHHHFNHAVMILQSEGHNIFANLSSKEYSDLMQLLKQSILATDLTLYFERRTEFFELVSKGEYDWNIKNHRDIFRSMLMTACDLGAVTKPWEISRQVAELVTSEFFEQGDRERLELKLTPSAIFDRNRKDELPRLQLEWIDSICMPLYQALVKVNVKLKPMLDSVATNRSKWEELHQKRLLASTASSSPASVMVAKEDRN
Sequence of High affinity cAMP-specific and IBMX-insensitive 3',5'-cyclic phosphodiesterase 8A (Homo sapiens) (O60658 whole entry): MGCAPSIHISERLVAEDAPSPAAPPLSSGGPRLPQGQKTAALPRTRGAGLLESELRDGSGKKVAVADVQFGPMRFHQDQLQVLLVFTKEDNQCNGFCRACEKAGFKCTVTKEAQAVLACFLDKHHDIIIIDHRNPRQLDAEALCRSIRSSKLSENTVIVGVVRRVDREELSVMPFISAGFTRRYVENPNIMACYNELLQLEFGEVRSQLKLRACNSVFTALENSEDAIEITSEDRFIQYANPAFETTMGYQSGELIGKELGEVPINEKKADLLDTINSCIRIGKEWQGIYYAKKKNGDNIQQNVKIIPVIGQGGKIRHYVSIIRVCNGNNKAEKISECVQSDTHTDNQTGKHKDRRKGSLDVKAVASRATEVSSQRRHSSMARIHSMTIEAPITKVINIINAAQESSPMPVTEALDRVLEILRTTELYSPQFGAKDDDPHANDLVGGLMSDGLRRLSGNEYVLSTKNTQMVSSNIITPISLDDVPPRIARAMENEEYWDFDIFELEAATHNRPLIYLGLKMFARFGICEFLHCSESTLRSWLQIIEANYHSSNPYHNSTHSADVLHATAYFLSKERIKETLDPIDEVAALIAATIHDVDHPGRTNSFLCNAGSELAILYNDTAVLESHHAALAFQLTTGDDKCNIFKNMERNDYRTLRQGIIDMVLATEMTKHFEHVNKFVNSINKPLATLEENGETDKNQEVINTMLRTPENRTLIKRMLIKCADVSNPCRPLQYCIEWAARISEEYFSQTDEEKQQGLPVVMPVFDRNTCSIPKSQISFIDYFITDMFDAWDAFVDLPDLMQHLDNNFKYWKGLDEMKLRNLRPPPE
Sequence of cGMP-inhibited 3',5'-cyclic phosphodiesterase 3A (Homo sapiens) (Q14432 whole entry): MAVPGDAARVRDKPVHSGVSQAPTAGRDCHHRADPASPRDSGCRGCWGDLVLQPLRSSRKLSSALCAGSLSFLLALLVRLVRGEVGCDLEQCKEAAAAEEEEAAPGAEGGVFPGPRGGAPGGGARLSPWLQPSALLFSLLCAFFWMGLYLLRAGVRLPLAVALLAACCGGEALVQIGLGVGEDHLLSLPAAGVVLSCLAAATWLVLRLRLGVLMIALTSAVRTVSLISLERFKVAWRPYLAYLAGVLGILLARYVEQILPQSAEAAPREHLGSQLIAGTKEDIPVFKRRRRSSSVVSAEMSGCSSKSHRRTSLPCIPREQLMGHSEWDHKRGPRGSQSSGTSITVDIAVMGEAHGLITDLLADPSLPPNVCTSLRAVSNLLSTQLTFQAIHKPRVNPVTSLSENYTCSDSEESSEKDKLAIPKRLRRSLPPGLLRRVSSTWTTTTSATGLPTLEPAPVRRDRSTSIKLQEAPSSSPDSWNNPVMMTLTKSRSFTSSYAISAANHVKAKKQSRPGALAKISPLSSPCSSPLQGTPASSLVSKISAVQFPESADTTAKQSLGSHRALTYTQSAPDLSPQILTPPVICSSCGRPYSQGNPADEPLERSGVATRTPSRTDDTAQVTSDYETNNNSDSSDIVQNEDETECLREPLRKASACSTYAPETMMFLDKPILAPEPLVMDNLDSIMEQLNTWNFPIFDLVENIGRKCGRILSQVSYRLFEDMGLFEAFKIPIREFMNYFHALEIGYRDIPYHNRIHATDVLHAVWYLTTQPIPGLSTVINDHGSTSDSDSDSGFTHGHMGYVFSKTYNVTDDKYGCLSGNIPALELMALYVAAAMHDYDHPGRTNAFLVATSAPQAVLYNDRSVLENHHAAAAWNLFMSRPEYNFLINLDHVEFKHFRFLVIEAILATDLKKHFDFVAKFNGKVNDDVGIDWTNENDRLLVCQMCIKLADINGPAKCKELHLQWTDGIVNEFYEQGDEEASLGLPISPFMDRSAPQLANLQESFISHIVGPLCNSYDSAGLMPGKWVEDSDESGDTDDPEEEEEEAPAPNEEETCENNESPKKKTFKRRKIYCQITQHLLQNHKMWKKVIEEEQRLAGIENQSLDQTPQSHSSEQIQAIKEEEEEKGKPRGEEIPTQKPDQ

Q: With `Cn1c2ccccc2c2cc(CCOc3ncccc3-c3cncnc3)cnc21` as the compound, how does the Drug metabolism (Liver microsome [1]) read?
A: metabolite_detected

Q: What about the inhibition [2] of the same compound?
A: 23.9%

Q: What about the Drug metabolism (Liver microsome [3]) of the same compound?
A: metabolite_detected

Q: And the remaining at 1 h, 1 µM [4]?
A: 0.45%

Q: And the pIC50 [5]?
A: 7.62

Q: What about the remaining at 1 h, 1 µM [6] of the same compound?
A: 1.93%

Q: And the inhibition [7]?
A: 9.8%

Q: And the Retention_time [8]?
A: 14.51 min

Q: And the Selectivity ratio (Homo sapiens)?
A: 100

Q: What about the inhibition [9] of the same compound?
A: 0%

Q: And the inhibition [10]?
A: 10.7%

Q: And the Drug metabolism (Liver microsome [11])?
A: metabolite_detected

Q: What about the Drug metabolism (Liver microsome [12]) of the same compound?
A: metabolite_detected

Q: And the inhibition [13]?
A: 0%

Q: And the inhibition [14]?
A: 25.8%

Q: What about the inhibition [15] of the same compound?
A: 67.2%

Q: And the inhibition [16]?
A: 92.5%

Q: And the Drug metabolism (Liver microsome [17])?
A: metabolite_detected

Q: And the Drug metabolism (Liver microsome [18])?
A: metabolite_detected

Q: What about the inhibition [19] of the same compound?
A: 12.4%

Q: And the inhibition [20]?
A: 20.7%

Q: And the Drug metabolism (Liver microsome [21])?
A: metabolite_detected

Q: What about the Drug metabolism (Liver microsome [22]) of the same compound?
A: metabolite_detected

Q: And the Drug metabolism (Liver microsome [23])?
A: metabolite_detected

Q: What about the inhibition [24] of the same compound?
A: 60%
